Laboratory results from patent US8940350B2, “Cereal compositions comprising high-potency sweeteners” (The Coca-Cola Company, priority 2005, dated 2015).

Experiment: Rate of dissolution in H2O at 25° C. of rebaudioside A polymorph and amorphous forms
Format: physicochemical
Details: grade in words

Substance	Rate of dissolution in H2O at 25° C.
rebaudioside A [Form 1]	Very low
rebaudioside A [Form 2]	Intermediate
rebaudioside A [Form 3]	High
rebaudioside A [Form 4]	High
